Results: the supplement of paper PMC10307832

How the values were obtained:
Assay in all cases: relative viability (nuclei count vs DMSO), 5 days (fraction); higher = more cells survive
Bexarotene + Lapatinib = compound: C=C(c1ccc(C(=O)O)cc1)c1cc2c(cc1C)C(C)(C)CCC2(C)C [Bexarotene] + CS(=O)(=O)CCNCc1ccc(-c2ccc3ncnc(Nc4ccc(OCc5cccc(F)c5)c(Cl)c4)c3c2)o1 [Lapatinib] (partner 2 µM)
Method in brief: (§1)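 The day after seeding in 1536-well plates, lung cancer cell lines were treated by pin tool with a single drug, or with a fixed anchor-drug dose together with five library-drug doses (not always all listed) in √10 steps. After 5 days, a combined fix-and-stain solution (final 0.05% Triton X-100, 1% formaldehyde, 1 ug/ml Hoechst) was added. Nuclei counted on 4× images gave relative viability as treated counts over vehicle counts, reported as the median of duplicate plates.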

Bexarotene + Luminespib = compound: C=C(c1ccc(C(=O)O)cc1)c1cc2c(cc1C)C(C)(C)CCC2(C)C [Bexarotene] + CCNC(=O)c1noc(-c2cc(C(C)C)c(O)cc2O)c1-c1ccc(CN2CCOCC2)cc1 [Luminespib] (partner 0.01 µM)
Method in brief: as §1

Bexarotene + Olaparib = compound: C=C(c1ccc(C(=O)O)cc1)c1cc2c(cc1C)C(C)(C)CCC2(C)C [Bexarotene] + O=C(c1cc(Cc2n[nH]c(=O)c3ccccc23)ccc1F)N1CCN(C(=O)C2CC2)CC1 [Olaparib] (partner 8 µM)
Method in brief: as §1

Bexarotene + Decitabine = compound: C=C(c1ccc(C(=O)O)cc1)c1cc2c(cc1C)C(C)(C)CCC2(C)C [Bexarotene] + Nc1ncn([C@H]2C[C@H](O)[C@@H](CO)O2)c(=O)n1 [Decitabine] (partner 2 µM)
Method in brief: as §1

## NCI-H1944
Bexarotene + Lapatinib; first compound 0.08 µM
  relative viability: 1.17
Bexarotene + Lapatinib; first compound 0.253 µM
  relative viability: 0.934
Bexarotene + Lapatinib; first compound 0.8 µM
  relative viability: 0.961
Bexarotene + Lapatinib; first compound 2.53 µM
  relative viability: 0.929
Bexarotene + Lapatinib; first compound 8 µM
  relative viability: 0.768
Bexarotene + Luminespib; first compound 0.08 µM
  relative viability: 1.45
Bexarotene + Luminespib; first compound 0.253 µM
  relative viability: 0.977
Bexarotene + Luminespib; first compound 0.8 µM
  relative viability: 0.959
Bexarotene + Luminespib; first compound 2.53 µM
  relative viability: 1.11
Bexarotene + Luminespib; first compound 8 µM
  relative viability: 0.875
Bexarotene + Olaparib; first compound 0.08 µM
  relative viability: 0.625
Bexarotene + Olaparib; first compound 0.253 µM
  relative viability: 0.573
Bexarotene + Olaparib; first compound 0.8 µM
  relative viability: 0.617
Bexarotene + Olaparib; first compound 2.53 µM
  relative viability: 0.602
Bexarotene + Olaparib; first compound 8 µM
  relative viability: 0.494
Bexarotene + Decitabine; first compound 0.08 µM
  relative viability: 0.493
Bexarotene + Decitabine; first compound 0.253 µM
  relative viability: 0.472
Bexarotene + Decitabine; first compound 0.8 µM
  relative viability: 0.504
Bexarotene + Decitabine; first compound 2.53 µM
  relative viability: 0.464
Bexarotene + Decitabine; first compound 8 µM
  relative viability: 0.383

## NCI-H2405
Bexarotene + Lapatinib; first compound 0.08 µM
  relative viability: 1.16
Bexarotene + Lapatinib; first compound 0.253 µM
  relative viability: 1.07
Bexarotene + Lapatinib; first compound 0.8 µM
  relative viability: 0.824
Bexarotene + Lapatinib; first compound 2.53 µM
  relative viability: 1.08
Bexarotene + Lapatinib; first compound 8 µM
  relative viability: 1.24
Bexarotene + Luminespib; first compound 0.08 µM
  relative viability: 0.775
Bexarotene + Luminespib; first compound 0.253 µM
  relative viability: 0.663
Bexarotene + Luminespib; first compound 0.8 µM
  relative viability: 0.539
Bexarotene + Luminespib; first compound 2.53 µM
  relative viability: 0.703
Bexarotene + Luminespib; first compound 8 µM
  relative viability: 0.625
Bexarotene + Olaparib; first compound 0.08 µM
  relative viability: 0.93
Bexarotene + Olaparib; first compound 0.253 µM
  relative viability: 0.849
Bexarotene + Olaparib; first compound 0.8 µM
  relative viability: 0.7
Bexarotene + Olaparib; first compound 2.53 µM
  relative viability: 0.852
Bexarotene + Olaparib; first compound 8 µM
  relative viability: 0.83
Bexarotene + Decitabine; first compound 0.08 µM
  relative viability: 0.887
Bexarotene + Decitabine; first compound 0.253 µM
  relative viability: 0.729
Bexarotene + Decitabine; first compound 0.8 µM
  relative viability: 0.653
Bexarotene + Decitabine; first compound 2.53 µM
  relative viability: 0.711
Bexarotene + Decitabine; first compound 8 µM
  relative viability: 0.775

## SK-LU-1
Bexarotene + Lapatinib; first compound 0.08 µM
  relative viability: 0.938
Bexarotene + Lapatinib; first compound 0.253 µM
  relative viability: 0.955
Bexarotene + Lapatinib; first compound 2.53 µM
  relative viability: 1
Bexarotene + Lapatinib; first compound 8 µM
  relative viability: 0.692
Bexarotene + Luminespib; first compound 0.08 µM
  relative viability: 0.201
Bexarotene + Luminespib; first compound 0.253 µM
  relative viability: 0.188
Bexarotene + Luminespib; first compound 2.53 µM
  relative viability: 0.177
Bexarotene + Luminespib; first compound 8 µM
  relative viability: 0.173
Bexarotene + Olaparib; first compound 0.08 µM
  relative viability: 0.557
Bexarotene + Olaparib; first compound 0.253 µM
  relative viability: 0.43
Bexarotene + Olaparib; first compound 2.53 µM
  relative viability: 0.417
Bexarotene + Olaparib; first compound 8 µM
  relative viability: 0.399
Bexarotene + Decitabine; first compound 0.08 µM
  relative viability: 0.668
Bexarotene + Decitabine; first compound 0.253 µM
  relative viability: 0.676
Bexarotene + Decitabine; first compound 2.53 µM
  relative viability: 0.588
Bexarotene + Decitabine; first compound 8 µM
  relative viability: 0.599

## EMC-BAC-2
Bexarotene + Lapatinib; first compound 0.08 µM
  relative viability: 0.923
Bexarotene + Lapatinib; first compound 0.253 µM
  relative viability: 0.884
Bexarotene + Lapatinib; first compound 0.8 µM
  relative viability: 0.812
Bexarotene + Lapatinib; first compound 2.53 µM
  relative viability: 0.841
Bexarotene + Lapatinib; first compound 8 µM
  relative viability: 0.887
Bexarotene + Luminespib; first compound 0.08 µM
  relative viability: 1.28
Bexarotene + Luminespib; first compound 0.253 µM
  relative viability: 1.23
Bexarotene + Luminespib; first compound 0.8 µM
  relative viability: 1.23
Bexarotene + Luminespib; first compound 2.53 µM
  relative viability: 1.12
Bexarotene + Luminespib; first compound 8 µM
  relative viability: 1.11
Bexarotene + Olaparib; first compound 0.08 µM
  relative viability: 0.522
Bexarotene + Olaparib; first compound 0.253 µM
  relative viability: 0.514
Bexarotene + Olaparib; first compound 0.8 µM
  relative viability: 0.504
Bexarotene + Olaparib; first compound 8 µM
  relative viability: 0.515
Bexarotene + Decitabine; first compound 0.08 µM
  relative viability: 1.1
Bexarotene + Decitabine; first compound 0.253 µM
  relative viability: 0.948
Bexarotene + Decitabine; first compound 0.8 µM
  relative viability: 0.924
Bexarotene + Decitabine; first compound 8 µM
  relative viability: 0.943

## NCI-H1650
Bexarotene + Lapatinib; first compound 0.08 µM
  relative viability: 0.813
Bexarotene + Lapatinib; first compound 0.253 µM
  relative viability: 0.707
Bexarotene + Lapatinib; first compound 0.8 µM
  relative viability: 0.871
Bexarotene + Lapatinib; first compound 2.53 µM
  relative viability: 0.659
Bexarotene + Lapatinib; first compound 8 µM
  relative viability: 0.745
Bexarotene + Luminespib; first compound 0.08 µM
  relative viability: 0.195
Bexarotene + Luminespib; first compound 0.253 µM
  relative viability: 0.183
Bexarotene + Luminespib; first compound 0.8 µM
  relative viability: 0.219
Bexarotene + Luminespib; first compound 2.53 µM
  relative viability: 0.225
Bexarotene + Luminespib; first compound 8 µM
  relative viability: 0.231
Bexarotene + Olaparib; first compound 0.08 µM
  relative viability: 0.769
Bexarotene + Olaparib; first compound 0.253 µM
  relative viability: 0.674
Bexarotene + Olaparib; first compound 0.8 µM
  relative viability: 0.797
Bexarotene + Olaparib; first compound 2.53 µM
  relative viability: 0.697
Bexarotene + Olaparib; first compound 8 µM
  relative viability: 0.7
Bexarotene + Decitabine; first compound 0.08 µM
  relative viability: 0.447
Bexarotene + Decitabine; first compound 0.253 µM
  relative viability: 0.453
Bexarotene + Decitabine; first compound 0.8 µM
  relative viability: 0.438
Bexarotene + Decitabine; first compound 2.53 µM
  relative viability: 0.403
Bexarotene + Decitabine; first compound 8 µM
  relative viability: 0.45

## NCI-H596
Bexarotene + Lapatinib; first compound 0.08 µM
  relative viability: 1.07
Bexarotene + Lapatinib; first compound 0.253 µM
  relative viability: 1
Bexarotene + Lapatinib; first compound 0.8 µM
  relative viability: 0.783
Bexarotene + Lapatinib; first compound 2.53 µM
  relative viability: 0.916
Bexarotene + Lapatinib; first compound 8 µM
  relative viability: 0.928
Bexarotene + Luminespib; first compound 0.08 µM
  relative viability: 1.08
Bexarotene + Luminespib; first compound 0.253 µM
  relative viability: 1.18
Bexarotene + Luminespib; first compound 0.8 µM
  relative viability: 1.01
Bexarotene + Luminespib; first compound 2.53 µM
  relative viability: 0.983
Bexarotene + Luminespib; first compound 8 µM
  relative viability: 0.963
Bexarotene + Olaparib; first compound 0.08 µM
  relative viability: 0.715
Bexarotene + Olaparib; first compound 0.253 µM
  relative viability: 0.679
Bexarotene + Olaparib; first compound 0.8 µM
  relative viability: 0.85
Bexarotene + Olaparib; first compound 2.53 µM
  relative viability: 0.672
Bexarotene + Olaparib; first compound 8 µM
  relative viability: 0.817
Bexarotene + Decitabine; first compound 0.08 µM
  relative viability: 1.11
Bexarotene + Decitabine; first compound 0.253 µM
  relative viability: 0.966
Bexarotene + Decitabine; first compound 0.8 µM
  relative viability: 0.974
Bexarotene + Decitabine; first compound 2.53 µM
  relative viability: 1.09
Bexarotene + Decitabine; first compound 8 µM
  relative viability: 1.02

## LCLC-97TM1
Bexarotene + Lapatinib; first compound 0.08 µM
  relative viability: 1.05
Bexarotene + Lapatinib; first compound 0.253 µM
  relative viability: 1.2
Bexarotene + Lapatinib; first compound 0.8 µM
  relative viability: 1.39
Bexarotene + Lapatinib; first compound 2.53 µM
  relative viability: 1.15
Bexarotene + Lapatinib; first compound 8 µM
  relative viability: 1.19
Bexarotene + Luminespib; first compound 0.08 µM
  relative viability: 0.827
Bexarotene + Luminespib; first compound 0.253 µM
  relative viability: 0.849
Bexarotene + Luminespib; first compound 0.8 µM
  relative viability: 0.778
Bexarotene + Luminespib; first compound 2.53 µM
  relative viability: 0.769
Bexarotene + Luminespib; first compound 8 µM
  relative viability: 0.822
Bexarotene + Olaparib; first compound 0.08 µM
  relative viability: 0.383
Bexarotene + Olaparib; first compound 0.253 µM
  relative viability: 0.421
Bexarotene + Olaparib; first compound 0.8 µM
  relative viability: 0.411
Bexarotene + Olaparib; first compound 2.53 µM
  relative viability: 0.31
Bexarotene + Olaparib; first compound 8 µM
  relative viability: 0.269
Bexarotene + Decitabine; first compound 0.08 µM
  relative viability: 0.282
Bexarotene + Decitabine; first compound 0.253 µM
  relative viability: 0.224
Bexarotene + Decitabine; first compound 0.8 µM
  relative viability: 0.227
Bexarotene + Decitabine; first compound 2.53 µM
  relative viability: 0.189
Bexarotene + Decitabine; first compound 8 µM
  relative viability: 0.21

## H3255
Bexarotene + Lapatinib; first compound 0.08 µM
  relative viability: 0.257
Bexarotene + Lapatinib; first compound 0.253 µM
  relative viability: 0.256
Bexarotene + Lapatinib; first compound 0.8 µM
  relative viability: 0.228
Bexarotene + Lapatinib; first compound 2.53 µM
  relative viability: 0.245
Bexarotene + Lapatinib; first compound 8 µM
  relative viability: 0.219
Bexarotene + Luminespib; first compound 0.08 µM
  relative viability: 0.869
Bexarotene + Luminespib; first compound 0.253 µM
  relative viability: 0.935
Bexarotene + Luminespib; first compound 0.8 µM
  relative viability: 1.01
Bexarotene + Luminespib; first compound 2.53 µM
  relative viability: 0.785
Bexarotene + Luminespib; first compound 8 µM
  relative viability: 0.954
Bexarotene + Olaparib; first compound 0.08 µM
  relative viability: 0.603
Bexarotene + Olaparib; first compound 0.253 µM
  relative viability: 0.692
Bexarotene + Olaparib; first compound 0.8 µM
  relative viability: 0.659
Bexarotene + Olaparib; first compound 2.53 µM
  relative viability: 0.642
Bexarotene + Olaparib; first compound 8 µM
  relative viability: 0.654
Bexarotene + Decitabine; first compound 0.08 µM
  relative viability: 0.923
Bexarotene + Decitabine; first compound 0.253 µM
  relative viability: 0.695
Bexarotene + Decitabine; first compound 0.8 µM
  relative viability: 0.587
Bexarotene + Decitabine; first compound 2.53 µM
  relative viability: 0.507
Bexarotene + Decitabine; first compound 8 µM
  relative viability: 0.562

## LXF-289
Bexarotene + Lapatinib; first compound 0.08 µM
  relative viability: 1
Bexarotene + Lapatinib; first compound 0.253 µM
  relative viability: 1.07
Bexarotene + Lapatinib; first compound 0.8 µM
  relative viability: 1.04
Bexarotene + Lapatinib; first compound 2.53 µM
  relative viability: 1.07
Bexarotene + Lapatinib; first compound 8 µM
  relative viability: 1.03
Bexarotene + Luminespib; first compound 0.08 µM
  relative viability: 0.8
Bexarotene + Luminespib; first compound 0.253 µM
  relative viability: 0.824
Bexarotene + Luminespib; first compound 0.8 µM
  relative viability: 0.798
Bexarotene + Luminespib; first compound 2.53 µM
  relative viability: 0.874
Bexarotene + Luminespib; first compound 8 µM
  relative viability: 0.8
Bexarotene + Olaparib; first compound 0.08 µM
  relative viability: 1.21
Bexarotene + Olaparib; first compound 0.253 µM
  relative viability: 1.16
Bexarotene + Olaparib; first compound 0.8 µM
  relative viability: 1.1
Bexarotene + Olaparib; first compound 2.53 µM
  relative viability: 1.06
Bexarotene + Olaparib; first compound 8 µM
  relative viability: 1.2
Bexarotene + Decitabine; first compound 0.08 µM
  relative viability: 0.381
Bexarotene + Decitabine; first compound 0.253 µM
  relative viability: 0.3
Bexarotene + Decitabine; first compound 0.8 µM
  relative viability: 0.293
Bexarotene + Decitabine; first compound 2.53 µM
  relative viability: 0.313
Bexarotene + Decitabine; first compound 8 µM
  relative viability: 0.323
